Results on 3 molecules are retold here after ChEMBL document CHEMBL5104203.

The target of the experiment is Trehalose-binding lipoprotein LpqY (Mycobacterium tuberculosis) (UniProt P9WGU9). Description: Binding affinity to RED-NHS labelled Mycobacterium tuberculosis LpqY expressed in Escherichia coli BL21 (DE3) assessed as dissociation constant incubated for 10 mins by Microscale thermophoresis analysis. Conditions: DDE = dose-dependent effect.
Trehalose-binding lipoprotein LpqY (Mycobacterium tuberculosis), sequence (P9WGU9 whole entry): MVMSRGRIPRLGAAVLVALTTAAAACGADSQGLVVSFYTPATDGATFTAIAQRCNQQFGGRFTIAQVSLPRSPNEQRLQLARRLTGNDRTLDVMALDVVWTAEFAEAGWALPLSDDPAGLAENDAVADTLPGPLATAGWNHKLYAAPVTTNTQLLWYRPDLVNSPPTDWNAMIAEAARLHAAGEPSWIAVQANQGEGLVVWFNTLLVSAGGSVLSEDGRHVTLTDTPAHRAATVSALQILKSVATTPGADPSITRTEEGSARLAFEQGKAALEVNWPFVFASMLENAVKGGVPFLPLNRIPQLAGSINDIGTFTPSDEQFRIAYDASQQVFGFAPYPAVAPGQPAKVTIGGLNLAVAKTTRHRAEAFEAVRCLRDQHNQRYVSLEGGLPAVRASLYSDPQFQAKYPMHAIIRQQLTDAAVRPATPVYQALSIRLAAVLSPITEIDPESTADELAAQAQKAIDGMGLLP

As to `COc1cc(NC(C)CCCN)c2ncccc2c1` (stereo not drawn), the Activity result was “Dde”.
To `Nc1cccnc1Nc1ccc(Cl)cc1` belongs “Dde”; to `CNC(=O)c1nn(C)c2c1C(C)(C)Cc1cnc(Nc3ccc(N4CCN(C)CC4)cc3)nc1-2`, “Dde”.
